Data taken from ChEMBL document CHEMBL3044603, “In search of new herbicidal inhibitors of the non-mevalonate pathway” (Pest Manag Sci, 2013).
Calls of active or inactive are those of the source. No cut-off for these calls is given here.

Tests used:
[1] = molecular target: T1, 4-diphosphocytidyl-2-C-methyl-D-erythritol kinase, chloroplastic/chromoplastic (Solanum lycopersicum, UniProt P93841); test: Inhibition of Solanum lycopersicum (tomato) IspE
T1 sequence (P93841 whole entry): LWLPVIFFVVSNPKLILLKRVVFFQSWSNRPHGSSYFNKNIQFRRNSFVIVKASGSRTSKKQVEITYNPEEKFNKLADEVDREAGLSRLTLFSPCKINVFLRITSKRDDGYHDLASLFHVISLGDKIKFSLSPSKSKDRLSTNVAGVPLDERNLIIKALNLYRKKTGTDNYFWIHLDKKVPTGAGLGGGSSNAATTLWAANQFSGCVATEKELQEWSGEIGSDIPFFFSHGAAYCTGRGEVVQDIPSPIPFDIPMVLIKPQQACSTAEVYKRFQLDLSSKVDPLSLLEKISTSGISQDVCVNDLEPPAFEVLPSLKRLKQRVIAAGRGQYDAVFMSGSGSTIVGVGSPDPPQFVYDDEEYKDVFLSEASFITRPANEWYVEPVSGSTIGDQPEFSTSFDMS

Lemna minor [2] = test: Herbicidal activity against Lemna minor (common duckweed) assessed as decrease in chlorophyll fluorescence at 56 mg/l measured for 4 days by picture analysis relative to control; assay type: functional, organism-based
Lemna minor [3] = test: Herbicidal activity against Lemna minor (common duckweed) assessed as growth inhibition at 56 mg/l measured for 6 days by picture analysis relative to control; assay type: functional, organism-based
[4] = molecular target: T2, 1-deoxy-D-xylulose 5-phosphate reductoisomerase, chloroplastic (Arabidopsis thaliana, UniProt Q9XFS9); test: Inhibition of Arabidopsis thaliana IspC expressed in Escherichia coli after 40 min by spectrophotometric analysis
T2 sequence (Q9XFS9 whole entry): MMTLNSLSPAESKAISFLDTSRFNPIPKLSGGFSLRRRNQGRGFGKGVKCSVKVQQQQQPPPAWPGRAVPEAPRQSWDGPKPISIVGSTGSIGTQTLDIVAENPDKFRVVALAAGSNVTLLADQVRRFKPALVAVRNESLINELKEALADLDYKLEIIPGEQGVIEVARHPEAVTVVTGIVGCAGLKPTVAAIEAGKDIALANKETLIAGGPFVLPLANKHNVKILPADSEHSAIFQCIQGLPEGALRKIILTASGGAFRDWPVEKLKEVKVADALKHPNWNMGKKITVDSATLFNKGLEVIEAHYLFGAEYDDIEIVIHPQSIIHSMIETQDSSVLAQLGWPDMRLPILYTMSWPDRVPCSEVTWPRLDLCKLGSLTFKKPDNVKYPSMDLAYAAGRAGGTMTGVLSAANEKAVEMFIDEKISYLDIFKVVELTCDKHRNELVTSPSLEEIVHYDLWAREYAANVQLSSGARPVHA

[5] = molecular target: T3, 4-diphosphocytidyl-2-C-methyl-D-erythritol kinase (Escherichia coli (strain K12), UniProt P62615); test: Inhibition of Escherichia coli IspE by spectrophotometric analysis
T3 sequence (P62615 whole entry): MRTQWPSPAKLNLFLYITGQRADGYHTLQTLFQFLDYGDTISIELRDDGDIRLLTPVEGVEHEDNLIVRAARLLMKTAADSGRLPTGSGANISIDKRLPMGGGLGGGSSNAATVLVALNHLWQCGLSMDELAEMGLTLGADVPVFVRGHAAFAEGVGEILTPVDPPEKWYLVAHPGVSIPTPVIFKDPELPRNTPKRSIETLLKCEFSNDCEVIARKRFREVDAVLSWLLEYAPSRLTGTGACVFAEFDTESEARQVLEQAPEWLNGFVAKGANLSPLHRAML

[6] = molecular target: T4, 2-C-methyl-D-erythritol 4-phosphate cytidylyltransferase, chloroplastic (Arabidopsis thaliana, UniProt P69834); test: Inhibition of Arabidopsis thaliana IspD
T4 sequence (P69834 whole entry): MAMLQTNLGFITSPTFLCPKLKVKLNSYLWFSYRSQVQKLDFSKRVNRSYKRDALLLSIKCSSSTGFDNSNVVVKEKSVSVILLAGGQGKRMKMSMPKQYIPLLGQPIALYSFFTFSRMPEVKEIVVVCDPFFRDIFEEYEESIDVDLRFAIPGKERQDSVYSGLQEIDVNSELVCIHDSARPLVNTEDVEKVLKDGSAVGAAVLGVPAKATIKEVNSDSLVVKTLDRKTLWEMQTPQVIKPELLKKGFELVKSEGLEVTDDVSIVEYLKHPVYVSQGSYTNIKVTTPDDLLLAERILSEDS

[7] = molecular target: T5, 2-C-methyl-D-erythritol 2,4-cyclodiphosphate synthase, chloroplastic (Arabidopsis thaliana, UniProt Q9CAK8); test: Inhibition of Arabidopsis thaliana IspF expressed in Escherichia coli XL1-Blue after 30 min by spectrophotometric analysis
T5 sequence (Q9CAK8 whole entry): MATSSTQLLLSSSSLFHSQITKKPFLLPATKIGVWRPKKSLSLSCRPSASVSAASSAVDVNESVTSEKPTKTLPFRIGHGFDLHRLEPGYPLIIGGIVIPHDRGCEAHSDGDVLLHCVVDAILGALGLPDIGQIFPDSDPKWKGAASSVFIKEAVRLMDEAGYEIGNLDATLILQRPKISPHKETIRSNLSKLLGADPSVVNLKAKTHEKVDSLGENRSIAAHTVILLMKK

[8] = molecular target: T6, 1-deoxy-D-xylulose-5-phosphate synthase, chloroplastic (Arabidopsis thaliana, UniProt Q38854); test: Inhibition of Arabidopsis thaliana N-terminal GST-tagged DXS expressed in Escherichia coli BL21 GOLD (DE) using glyceraldehydephosphate and pyruvate as substrate after 90 min by spectrophotometric analysis
T6 sequence (Q38854 whole entry): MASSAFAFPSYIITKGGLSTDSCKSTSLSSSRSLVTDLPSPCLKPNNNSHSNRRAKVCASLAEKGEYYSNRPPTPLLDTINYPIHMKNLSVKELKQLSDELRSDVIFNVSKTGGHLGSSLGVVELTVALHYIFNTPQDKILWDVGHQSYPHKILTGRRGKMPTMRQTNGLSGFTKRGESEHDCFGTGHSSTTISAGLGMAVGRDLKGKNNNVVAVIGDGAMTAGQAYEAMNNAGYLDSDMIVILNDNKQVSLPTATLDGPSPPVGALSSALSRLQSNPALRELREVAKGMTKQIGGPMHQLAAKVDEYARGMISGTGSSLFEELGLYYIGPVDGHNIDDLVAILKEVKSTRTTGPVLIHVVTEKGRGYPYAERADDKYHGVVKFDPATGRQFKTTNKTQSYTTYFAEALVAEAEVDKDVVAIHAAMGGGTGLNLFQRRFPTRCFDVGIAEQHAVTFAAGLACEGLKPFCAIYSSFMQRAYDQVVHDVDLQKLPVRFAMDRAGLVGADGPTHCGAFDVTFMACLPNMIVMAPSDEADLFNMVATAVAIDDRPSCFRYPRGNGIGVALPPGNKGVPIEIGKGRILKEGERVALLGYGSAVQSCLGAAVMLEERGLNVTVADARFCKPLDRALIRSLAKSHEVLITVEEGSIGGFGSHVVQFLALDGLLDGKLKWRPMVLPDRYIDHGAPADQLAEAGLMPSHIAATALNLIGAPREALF

| Compound | Activity (Lemna minor [2]) | growth inhibition (GI) (Lemna minor [3]) | IC50 [8] | other results |
| --- | --- | --- | --- | --- |
| NC1=N/C(=N\NC(=O)Cc2cccc3ccccc23)c2ccccc21 | inactive | inactive | – | IC50 [1]: 54 µM |
| CCC1(C)Cc2c(sc3nc(SC)nc(O)c23)CS1 (configuration not stated) | inactive | inactive | – | IC50 [4]: 59 µM |
| CC(C)Nc1nc(Nc2ccccc2)nc(Cl)c1-c1c(F)cccc1Cl | inactive | inactive | – | IC50 [4]: 34 µM |
| O=CN(O)CCCP(=O)(O)O [FOSMIDOMYCIN] | – | – | – | IC50 [4]: 0.1 µM |
| Nc1ccn([C@@H]2O[C@H](CNC(=O)CCc3nc4ccccc4[nH]3)[C@@H](O)[C@H]2O)c(=O)n1 | – | – | – | IC50 [5]: 1.7 µM |
| COc1ccc2nc(NC(=O)COc3ccc(-c4ccccc4)cc3)sc2c1 | inactive | inactive | – | IC50 [6]: 6.3 µM |
| CCOC(=O)C1=C(C)N=c2s/c(=C\c3cc(Br)c(O)c(Br)c3)c(=O)n2C1c1ccc(OC)cc1 (configuration not stated) | – | – | – | IC50 [7]: 3.2 µM |
| Oc1c(Cc2ccccc2)c(Cl)nc2ncnn12 | Active | Active | – | – |
| CCOc1ccc(-c2onc(C(F)(F)F)c2-c2ccc(OC)cc2)c(O)c1 | Active | Active | 61 µM | – |
| CC1(C)C(=O)ON(Cc2ccccc2Cl)C1=O [KETOCLOMAZONE] | – | – | 0.08 µM | – |
| COc1ccc2nc(NC(=O)c3cc(-c4ccccc4O)n[nH]3)sc2c1 | inactive | inactive | – | IC50 [6]: 1.8 µM |
| COc1ccc(/C=N/Nc2nc3ccccc3[nH]2)cc1OCc1ccccc1 | inactive | inactive | 49 µM | – |
| O=C(O)c1ccc(-c2ccc(/C=N/Nc3nc4ccccc4s3)o2)cc1 | inactive | inactive | 33 µM | – |
| NC1=N/C(=N\NC(=O)c2cc(Cl)ccn2)c2ccc3ccccc3c21 | Active | Active | – | IC50 [1]: 7.2 µM |
| N#Cc1cnn2c(O)c(Cc3ccccc3)c(Cl)nc12 | – | – | – | IC50 [6]: 0.035 µM |
| COc1ccc(-c2onc(C(F)(F)F)c2-c2ccc(Br)cc2)c(O)c1 | Active | Active | 32 µM | – |
